Measurements: US20250129344A1, “MODIFIED GLUTAMATE DEHYDROGENASE AND APPLICATION THEREOF” (Hunan Lier Biotech Co., Ltd., priority 2021, published 2025)
Where a chain is given by its changes, count along the chain named.

Experiments:
Experiment in all cases: Dynamic properties (Michaelis-Menten) of LsGluDH mutant, PPO reductive amination
Format in all cases: biochemical
Settings in all cases: PPO 5-100 mM, NADPH 0.15 mM, NH4Cl 50 mM, PBS pH 7.5, 30° C., diluted crude enzyme, 340 nm
[1] = molecular target: T1, Lysinibacillus sphaericus glutamate dehydrogenase (LsGluDH, SEQ ID NO: 2) variant A175G-P132L, SEQ ID NO: 32 (Lysinibacillus pinottii, UniProt A0ABT2DNY0, A175G/P132L)
T1 sequence (A0ABT2DNY0 1-457 P132L/A175G): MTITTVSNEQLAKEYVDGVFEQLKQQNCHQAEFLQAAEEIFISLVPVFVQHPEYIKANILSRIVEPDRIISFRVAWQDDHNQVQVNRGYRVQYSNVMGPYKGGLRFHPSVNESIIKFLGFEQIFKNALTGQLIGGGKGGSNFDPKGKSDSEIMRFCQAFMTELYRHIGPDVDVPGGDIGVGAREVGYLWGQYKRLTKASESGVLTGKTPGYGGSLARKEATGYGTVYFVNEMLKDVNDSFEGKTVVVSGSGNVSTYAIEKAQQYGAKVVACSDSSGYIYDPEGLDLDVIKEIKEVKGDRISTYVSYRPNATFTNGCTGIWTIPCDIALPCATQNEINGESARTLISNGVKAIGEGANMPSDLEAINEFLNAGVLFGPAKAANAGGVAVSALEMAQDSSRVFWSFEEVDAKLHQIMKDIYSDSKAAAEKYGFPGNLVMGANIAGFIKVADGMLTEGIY
Protocol: (§1) A plurality of reaction systems (200 μL) comprising PBS of 100 mM pH 7.5 (pH was adjusted with aqueous ammonia solution), NADPH (reductive) of 0.15 mM, NH4Cl of 50 mM, diluted (500 folds) crude enzyme solution of 10% volume and the substrate PPO at various concentrations (5-100 mM) were formulated on a 96-well plate. The intensity of the UV absorption at 340 nm was detected at 30° C., and the rate of change in absorption over time (mA/min) was recorded. The obtained parameters were plugged into Michaelis-Menten equation, in which the reaction velocity was calculated with the rate of change in absorption.
(§2) The mutants were prepared with the coding nucleic acid of LsGluDH (SEQ ID NO: 2) as the template, and the enzyme activities and the dynamic parameters Vmax and Km were measured, according to the method of Example 1. The resulted mutants and the enzyme activities and the dynamic parameters thereof are shown in Table 2, and the relative enzyme activity means the percentage of the enzyme activity of the mutant to the enzyme activity of the mutant of SEQ ID NO: 31.

[2] = molecular target: T2, Lysinibacillus sphaericus glutamate dehydrogenase (LsGluDH, SEQ ID NO: 2) variant A175G-I133V-V173S-A182R, SEQ ID NO: 38 (Lysinibacillus pinottii, UniProt A0ABT2DNY0, A175G/A182R/I133V/V173S)
T2 sequence (A0ABT2DNY0 1-457 A175G/A182R/I133V/V173S): T1 sequence (A0ABT2DNY0 1-457 P132L/A175G) with L132P, I133V, V173S, A182R
Protocol: as §1, §2

[3] = molecular target: T3, Lysinibacillus sphaericus glutamate dehydrogenase (LsGluDH, SEQ ID NO: 2) variant A175G-V173S, SEQ ID NO: 34 (Lysinibacillus pinottii, UniProt A0ABT2DNY0, A175G/V173S)
T3 sequence (A0ABT2DNY0 1-457 V173S/A175G): T1 sequence (A0ABT2DNY0 1-457 P132L/A175G) with L132P, V173S
Protocol: as §1, §2

[4] = molecular target: T4, Lysinibacillus sphaericus glutamate dehydrogenase (LsGluDH, SEQ ID NO: 2) variant A175G-A182R, SEQ ID NO: 36 (Lysinibacillus pinottii, UniProt A0ABT2DNY0, A175G/A182R)
T4 sequence (A0ABT2DNY0 1-457 A175G/A182R): T1 sequence (A0ABT2DNY0 1-457 P132L/A175G) with L132P, A182R
Protocol: as §1, §2

SMILES: CP(=O)(O)CCC(=O)C(=O)O [PPO, 2-carbonyl-4-(hydroxymethylphosphono) butyric acid]
- Km [1]: 35 mM
- Vmax [1]: 45 mA/min
- Km [2]: 26 mM
- Vmax [2]: 38 mA/min
- Km [3]: 62 mM
- Vmax [3]: 106 mA/min
- Km [4]: 38 mM
- Vmax [4]: 46 mA/min
